Data published in paper PMC11280325, “Design, Synthesis, and Characterization of Novel Thiazolidine-2,4-Dione-Acridine Hybrids as Antitumor Agents” (Molecules, 2024).
Where a name gives a salt, the structure may show the parent alone.

Experiments:
Hep G2 = assay: MTT assay, Hep G2; assay type: cell-based, human; conditions: hepatocellular carcinoma, 48 h incubation
Protocol: (§1) The human cancer cell lines HeLa (cervical adenocarcinoma), HCT116 (colorectal adenocarcinoma), A2780 (human ovarian adenocarcinoma), A2780cis (human ovarian adenocarcinoma cisplatin-resistant), Jurkat (acute T-lymphoblastic leukemia), and Hep G2 (hepatocellular carcinoma) were cultured in an RPMI 1640 growth medium (Biosera, Kansas City, MO, USA). The cancer cell lines MDA-MB-231 (triple-negative breast adenocarcinoma), A2058 (human melanoma), U87 (human glioblastoma), PATU 8902 (pancreas adenocarcinoma), and A549 (human lung adenocarcinoma) were cultured in a DMEM medium (Biosera, Kansas City, MO, USA). The media were supplemented with 10% fetal bovine serum (FBS) (Invitrogen, Carlsbad, CA, USA) and 1× HyClone™ Antibiotic/Antimycotic Solution (GE Healthcare, Piscataway, NJ, USA).
(§2) To evaluate the IC50 (half-maximal inhibitory concentration) and confirm the antiproliferative activity of the tested substances, we employed the colorimetric MTT assay (3-(4,5-dimethylthiazol-2-yl)-2,5-diphenyltetrazolium bromide) (Sigma-Aldrich Chemie, Steinheim, Germany). The cell lines were seeded in 96-well plates at a density of 5 × 10^3 to 10 × 10^3 cells per well. After 24 h, the tested substances, dissolved in the cultivation medium, were added to the cells at final concentrations of 5, 10, 20, and 50 µmol/L. The cells were then incubated for 48 h under standard cultivation conditions. Following the incubation period, MTT was added to each well. The MTT was metabolized by the cells into insoluble formazan crystals, which were subsequently dissolved by adding 100 µL of 10% SDS. After another 24 h, the absorbance was measured at a wavelength of 540 nm using the automated Cytation™ 3 Cell Imaging Multi-Mode Reader (Biotek, Winooski, VT, USA). The experiments were performed in at least three independent repetitions. IC50 values were calculated using a nonlinear regression method.

Bj-5ta = assay: MTT assay, BJ-5ta non-cancerous fibroblasts; assay type: cell-based, human; conditions: non-cancerous dermal fibroblasts, 48 h incubation
Protocol: The non-cancerous cell line MCF-10A (human epithelial breast cells) was cultured in a DMEM F12 medium supplemented with 10% FBS (Invitrogen, Carlsbad, CA, USA), 1× HyClone™ Antibiotic/Antimycotic Solution (GE Healthcare, Piscataway, NJ, USA), insulin, hEGF, and hydrocortisone. The BJ-5ta cells (human dermal fibroblasts) were cultured in a DMEM-M199 4:1 medium mixture, supplemented with 10% FBS and hygromycin B (0.01 mg/mL). The cells were maintained under standard conditions with an atmosphere containing 5% CO2 at 37 °C. Cell viability, estimated by trypan blue exclusion, was consistently greater than 95% before each experiment.
as §2

HCT116 = assay: MTT assay, HCT116; assay type: cell-based, human; conditions: colorectal adenocarcinoma, 48 h incubation
Protocol: as §1, §2

PATU = assay: MTT assay, PATU 8902; assay type: cell-based, human; conditions: pancreas adenocarcinoma, 48 h incubation
Protocol: as §1, §2

HeLa = assay: MTT assay, HeLa; assay type: cell-based, human; conditions: cervical adenocarcinoma, 48 h incubation
Protocol: as §1, §2

A549 = assay: MTT assay, A549; assay type: cell-based, human; conditions: lung adenocarcinoma, 48 h incubation
Protocol: as §1, §2

A2058 = assay: MTT assay, A2058; assay type: cell-based; conditions: human melanoma, 48 h incubation
Protocol: as §1, §2

SMILES	IC50 (HCT116) [µM]	IC50 (HeLa) [µM]	IC50 (A549) [µM]	IC50 (Hep G2) [µM]	IC50 (Bj-5ta) [µM]	IC50 (PATU) [µM]	IC50 (A2058) [µM]
O=C(COc1ccc(/C=C2\SC(=O)N(Cc3cccc4cc5ccccc5nc34)C2=O)cc1)Nc1cccc(C(F)(F)F)c1 [8f·HCl, 2-(4-{[(5Z)-3-[(Acridin-4-yl)methyl]-2,4-dioxo-1,3-thiazolidin-5-ylidene]methyl}phenoxy)-N-[3-(trifluoromethyl)phenyl]acetamide hydrochloride]	> 50	> 50	> 50	> 50	> 50	> 50	> 50
COc1cc(/C=C2\SC(=O)N(Cc3cccc4cc5ccccc5nc34)C2=O)ccc1OCC(=O)Nc1ccccc1 [13a·HCl, 2-(4-{[(5Z)-3-[(Acridin-4-yl)methyl]-2,4-dioxo-1,3-thiazolidin-5-ylidene]methyl}-2-methoxyphenoxy)-N-phenylacetamide hydrochloride]	> 50	> 50	> 50	> 50	> 50	> 50	> 50
COc1cc(NC(=O)COc2ccc(/C=C3\SC(=O)N(Cc4cccc5cc6ccccc6nc45)C3=O)cc2OC)cc(OC)c1 [13b·HCl, 2-(4-{[(5Z)-3-[(Acridin-4-yl)methyl]-2,4-dioxo-1,3-thiazolidin-5-ylidene]methyl}-2-methoxyphenoxy)-N-(3,5-dimethoxyphenyl)acetamide hydrochloride]	> 50	45.5 ± 2.9	> 50	> 50	> 50	> 50	> 50
COc1cc(/C=C2\SC(=O)N(Cc3cccc4cc5ccccc5nc34)C2=O)ccc1OCC(=O)Nc1ccc([N+](=O)[O-])cc1 [13d·HCl, 2-(4-{[(5Z)-3-[(Acridin-4-yl)methyl]-2,4-dioxo-1,3-thiazolidin-5-ylidene]methyl}-2-methoxyphenoxy)-N-(4-nitrophenyl)acetamide hydrochloride]	> 50	> 50	> 50	> 50	> 50	> 50	> 50

More lines, main results first:

IC50 (HCT116) [µM]	IC50 (HeLa) [µM]	IC50 (A549) [µM]	SMILES	IC50 (Hep G2) [µM]	IC50 (Bj-5ta) [µM]	IC50 (PATU) [µM]	IC50 (A2058) [µM]
> 50	42.6 ± 0.75	> 50	O=C(COc1ccc(/C=C2\SC(=O)N(Cc3cccc4cc5ccccc5nc34)C2=O)cc1)Nc1ccccc1 [8a·HCl, 2-(4-{[(5Z)-3-[(Acridin-4-yl)methyl]-2,4-dioxo-1,3-thiazolidin-5-ylidene]methyl}phenoxy)-N-phenylacetamide hydrochloride]	> 50	> 50	> 50	> 50
> 50	> 50	> 50	O=C(COc1ccc(/C=C2\SC(=O)N(Cc3cccc4cc5ccccc5nc34)C2=O)cc1)Nc1ccc([N+](=O)[O-])cc1 [8d·HCl, 2-(4-{[(5Z)-3-[(Acridin-4-yl)methyl]-2,4-dioxo-1,3-thiazolidin-5-ylidene]methyl}phenoxy)-N-(4-nitrophenyl)acetamide hydrochloride]	> 50	> 50	> 50	> 50
> 50	> 50	> 50	O=C(COc1ccc(/C=C2\SC(=O)N(Cc3cccc4cc5ccccc5nc34)C2=O)cc1)Nc1ccccc1C(F)(F)F [8e·HCl, 2-(4-{[(5Z)-3-[(Acridin-4-yl)methyl]-2,4-dioxo-1,3-thiazolidin-5-ylidene]methyl}phenoxy)-N-[2-(trifluoromethyl)phenyl]acetamid hydrochloride]	> 50	> 50	> 50	> 50
14.5 ± 3.4	13.7 ± 4.5	42.8 ± 5.4	COc1cc(/C=C2\SC(=O)N(Cc3cccc4cc5ccccc5nc34)C2=O)ccc1OCC(=O)Nc1ccccc1C(F)(F)F [13e·HCl, 2-(4-{[(5Z)-3-[(Acridin-4-yl)methyl]-2,4-dioxo-1,3-thiazolidin-5-ylidene]methyl}-2-methoxyphenoxy)-N-[2-(trifluoromethyl)phenyl]acetamide hydrochloride]	> 50	> 50	39.8 ± 7.1	> 50
